Assay results: the supplement of paper PMC7285287
Counter-ions that a name gives are not always drawn. ± gives the standard deviation of the averaged measurements.

Test system: Candida albicans SNY425 biofilm
Assay: biofilm OD600 relative to DMSO control (fraction of DMSO control); higher = more biofilm (less inhibition)
Procedure: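 C. albicans SNY425 biofilm optical density assays (OD600 of the adhered biofilm after media removal) in RPMI-MOPS pH 7.0 at 37 °C with shaking. Groups of 4 to 8 wells per compound are averaged and normalised to the average of DMSO loading control wells. Adherence inhibition was tested at 10 and 40 µM, sustained inhibition and disruption at 40 µM, and the MBIC series at 200 to 0.78 µM.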

[1] = 10 µM, assay detail: adherence inhibition, 96-well, compound during 90 min adherence only
[2] = 40 µM, assay detail: adherence inhibition, 96-well, compound during 90 min adherence only
[3] = 40 µM, assay detail: disruption, 384-well, compound added to 24 h mature biofilm for further 24 h
[4] = 40 µM, assay detail: sustained inhibition, 384-well, compound during adherence and 24 h growth
[5] = 0.78 µM, assay detail: sustained inhibition (MBIC series), 384-well, compound during adherence and 24 h growth
[6] = 3.125 µM, assay detail: sustained inhibition (MBIC series), 384-well, compound during adherence and 24 h growth
[7] = 12.5 µM, assay detail: sustained inhibition (MBIC series), 384-well, compound during adherence and 24 h growth
[8] = 50 µM, assay detail: sustained inhibition (MBIC series), 384-well, compound during adherence and 24 h growth
[9] = 200 µM, assay detail: sustained inhibition (MBIC series), 384-well, compound during adherence and 24 h growth

## Oc1ncnc2[nH]ncc12 [Allopurinol]
[1]
  biofilm OD600: 0.938
[2]
  biofilm OD600: 0.887
[3]
  biofilm OD600: 1.02 ± 0.07
[4]
  biofilm OD600: 0.982 ± 0.038

## CNCCCC1c2ccccc2C=Cc2ccccc21 [Protriptyline hydrochloride]
[1]
  biofilm OD600: 1.05
[2]
  biofilm OD600: 0.899
[3]
  biofilm OD600: 1.01 ± 0.012
[4]
  biofilm OD600: 1.02 ± 0.022

## Nc1ccc(S(=O)(=O)Nc2ccnn2-c2ccccc2)cc1 [Sulfaphenazole]
[1]
  biofilm OD600: 0.962
[2]
  biofilm OD600: 0.934
[3]
  biofilm OD600: 1.01 ± 0.017
[4]
  biofilm OD600: 1.01 ± 0.03

## Cc1cnc(C(=O)O)c[n+]1[O-] [acipimox]
[1]
  biofilm OD600: 0.823
[2]
  biofilm OD600: 0.56
[3]
  biofilm OD600: 0.997 ± 0.034
[4]
  biofilm OD600: 0.992 ± 0.029

## C[C@@H]1CC[C@H]2[C@@H](C)C(=O)O[C@@H]3O[C@@]4(C)CC[C@@H]1[C@]32OO4 [artemisinin]
[5]
  biofilm OD600: 1.09
[6]
  biofilm OD600: 1.06
[1]
  biofilm OD600: 1.14
[7]
  biofilm OD600: 1.01
[2]
  biofilm OD600: 0.966
[3]
  biofilm OD600: 0.955 ± 0.017
[4]
  biofilm OD600: 0.838 ± 0.019
[8]
  biofilm OD600: 0.893
[9]
  biofilm OD600: 0.744

## O=C([O-])C(O)[C@H](O)[C@@H](O)[C@H](O)[C@H](O)CO.O=C([O-])C(O)[C@H](O)[C@@H](O)[C@H](O)[C@H](O)CO.[Ca+2] (stereo partly specified) [calcium gluceptate]
[5]
  biofilm OD600: 0.996
[6]
  biofilm OD600: 1.09
[1]
  biofilm OD600: 0.997
[7]
  biofilm OD600: 1.02
[2]
  biofilm OD600: 0.955
[3]
  biofilm OD600: 0.941 ± 0.037
[4]
  biofilm OD600: 0.955 ± 0.022
[8]
  biofilm OD600: 1.02
[9]
  biofilm OD600: 0.823

## N[C@@H](C(=O)N[C@@H]1C(=O)N2C(C(=O)O)=C(Cl)CS[C@H]12)c1ccccc1 [cefaclor]
[1]
  biofilm OD600: 1.07
[2]
  biofilm OD600: 0.896
[3]
  biofilm OD600: 1.03 ± 0.028
[4]
  biofilm OD600: 0.983 ± 0.032

## Oc1c(Cl)cc(Cl)c2cccnc12 [chloroxine]
[5]
  biofilm OD600: 1.03
[6]
  biofilm OD600: 1.03
[1]
  biofilm OD600: 0.788
[7]
  biofilm OD600: 0.926
[2]
  biofilm OD600: 0.373
[3]
  biofilm OD600: 0.907 ± 0.031
[4]
  biofilm OD600: 0.28 ± 0.019
[8]
  biofilm OD600: 0.333
[9]
  biofilm OD600: 0.268

## CN(C)CCC(c1ccc(Cl)cc1)c1ccccn1 (stereo unspecified) [chlorpheniramine maleate]
[1]
  biofilm OD600: 1.02
[2]
  biofilm OD600: 0.894
[3]
  biofilm OD600: 1 ± 0.044
[4]
  biofilm OD600: 1.01 ± 0.026

## N[C@H](Cc1ccccc1)C(=O)O [d-phenylalanine]
[1]
  biofilm OD600: 1
[2]
  biofilm OD600: 1.01
[3]
  biofilm OD600: 0.973 ± 0.034
[4]
  biofilm OD600: 0.994 ± 0.06

## CCCCCCOC(=O)NC(=N)c1ccc(NCc2nc3cc(C(=O)N(CCC(=O)OCC)c4ccccn4)ccc3n2C)cc1 [dabigatran etexilate mesylate]
[5]
  biofilm OD600: 0.9
[6]
  biofilm OD600: 0.9
[1]
  biofilm OD600: 1.05
[7]
  biofilm OD600: 0.92
[2]
  biofilm OD600: 0.776
[3]
  biofilm OD600: 0.971 ± 0.031
[4]
  biofilm OD600: 0.894 ± 0.046
[8]
  biofilm OD600: 0.843
[9]
  biofilm OD600: 0.628

## NC(=O)C(c1ccccc1)(c1ccccc1)[C@@H]1CCN(CCc2ccc3c(c2)CCO3)C1 [darifenacin hydrobromide]
[1]
  biofilm OD600: 1.04
[2]
  biofilm OD600: 0.916
[3]
  biofilm OD600: 1 ± 0.018
[4]
  biofilm OD600: 1.05 ± 0.046

## Cc1c(OCC(F)(F)F)ccnc1C[S@@+]([O-])c1nc2ccccc2[nH]1 [dexlansoprazole]
[5]
  biofilm OD600: 0.981
[6]
  biofilm OD600: 0.887
[1]
  biofilm OD600: 0.925
[7]
  biofilm OD600: 0.833
[2]
  biofilm OD600: 0.837
[3]
  biofilm OD600: 1.01 ± 0.024
[4]
  biofilm OD600: 0.7 ± 0.091
[8]
  biofilm OD600: 0.643
[9]
  biofilm OD600: 0.625

## COc1ccc(-c2cc(=O)c3c(O)cc(O[C@@H]4O[C@H](CO[C@@H]5O[C@@H](C)[C@H](O)[C@@H](O)[C@H]5O)[C@@H](O)[C@H](O)[C@H]4O)cc3o2)cc1O [diosmin]
[1]
  biofilm OD600: 1
[2]
  biofilm OD600: 0.962
[3]
  biofilm OD600: 1.09 ± 0.14
[4]
  biofilm OD600: 1.07 ± 0.059

## CCN(CC)C(=S)SSC(=S)N(CC)CC [disulfiram]
[5]
  biofilm OD600: 0.958
[6]
  biofilm OD600: 1
[1]
  biofilm OD600: 0.991
[7]
  biofilm OD600: 1
[2]
  biofilm OD600: 0.857
[3]
  biofilm OD600: 0.999 ± 0.012
[4]
  biofilm OD600: 0.76 ± 0.084
[8]
  biofilm OD600: 0.764
[9]
  biofilm OD600: 0.417

## Cn1c(=O)c2c(ncn2CC(O)CO)n(C)c1=O (stereo unspecified) [dyphylline]
[1]
  biofilm OD600: 0.909
[2]
  biofilm OD600: 0.872
[3]
  biofilm OD600: 1.02 ± 0.046
[4]
  biofilm OD600: 1.02 ± 0.047

## CN1CCC[C@@H]1Cc1c[nH]c2ccc(CCS(=O)(=O)c3ccccc3)cc12 [eletriptan hydrobromide]
[1]
  biofilm OD600: 0.99
[2]
  biofilm OD600: 0.945
[3]
  biofilm OD600: 1.014 ± 0.0095
[4]
  biofilm OD600: 1 ± 0.026

## CC[C@H]1OC(=O)[C@H](C)[C@@H](O[C@H]2C[C@@](C)(OC)[C@@H](O)[C@H](C)O2)[C@H](C)[C@@H](O[C@@H]2O[C@H](C)C[C@H](N(C)C)[C@H]2O)[C@](C)(O)C[C@@H](C)C(=O)[C@H](C)[C@@H](O)[C@]1(C)O [erythromycin]
[1]
  biofilm OD600: 0.879
[2]
  biofilm OD600: 0.874
[3]
  biofilm OD600: 1.03 ± 0.026
[4]
  biofilm OD600: 1.03 ± 0.017

## CCC(=O)Oc1ccc2c(c1)CC[C@@H]1[C@@H]2CC[C@]2(C)[C@@H](OC(=O)CC)CC[C@@H]12 [estradiol dipropionate]
[1]
  biofilm OD600: 0.958
[2]
  biofilm OD600: 0.844
[3]
  biofilm OD600: 0.954 ± 0.037
[4]
  biofilm OD600: 0.987 ± 0.012

## O=c1[nH]c(=O)n([C@H]2C[C@H](O)[C@@H](CO)O2)cc1F [floxuridine]
[1]
  biofilm OD600: 1.02
[2]
  biofilm OD600: 0.967
[3]
  biofilm OD600: 0.969 ± 0.017
[4]
  biofilm OD600: 0.927 ± 0.025

## Nc1nc(=O)[nH]cc1F [flucytosine]
[5]
  biofilm OD600: 0.866
[6]
  biofilm OD600: 0.873
[1]
  biofilm OD600: 0.907
[7]
  biofilm OD600: 0.862
[2]
  biofilm OD600: 0.776
[3]
  biofilm OD600: 0.983 ± 0.06
[4]
  biofilm OD600: 0.798 ± 0.066
[8]
  biofilm OD600: 0.758
[9]
  biofilm OD600: 0.719

## CC1OC1P(=O)(O)O (stereo unspecified) [fosphomycin]
[1]
  biofilm OD600: 0.972
[2]
  biofilm OD600: 1.04
[3]
  biofilm OD600: 1.01 ± 0.019
[4]
  biofilm OD600: 0.982 ± 0.011

## N[C@@H](Cc1cc(I)c(Oc2ccc(O)c(I)c2)c(I)c1)C(=O)O [liothyronine sodium]
[1]
  biofilm OD600: 1.14
[2]
  biofilm OD600: 1.15
[3]
  biofilm OD600: 0.989 ± 0.05
[4]
  biofilm OD600: 0.96 ± 0.021

## Cc1cccc(Nc2ccccc2C(=O)O)c1C [mefenamic acid]
[5]
  biofilm OD600: 1.02
[6]
  biofilm OD600: 1.01
[1]
  biofilm OD600: 0.973
[7]
  biofilm OD600: 0.958
[2]
  biofilm OD600: 0.93
[3]
  biofilm OD600: 0.875 ± 0.038
[4]
  biofilm OD600: 0.905 ± 0.011
[8]
  biofilm OD600: 0.875
[9]
  biofilm OD600: 0.714

## CCN(CC)C(=O)C1(c2ccccc2)CC1CN (stereo unspecified) [milnacipran hydrochloride]
[1]
  biofilm OD600: 0.934
[2]
  biofilm OD600: 0.943
[3]
  biofilm OD600: 0.977 ± 0.026
[4]
  biofilm OD600: 0.962 ± 0.018

## CCCCCCCCCCCCCCCCOP(=O)([O-])OCC[N+](C)(C)C [miltefosine]
[5]
  biofilm OD600: 0.9
[6]
  biofilm OD600: 0.9
[1]
  biofilm OD600: 0.99
[7]
  biofilm OD600: 1.08
[2]
  biofilm OD600: 0.844
[3]
  biofilm OD600: 1.09 ± 0.035
[4]
  biofilm OD600: 0.222 ± 0.015
[8]
  biofilm OD600: 0.298
[9]
  biofilm OD600: 0.259

## O=C(O)c1cccnc1 [niacin]
[1]
  biofilm OD600: 0.913
[2]
  biofilm OD600: 0.91
[3]
  biofilm OD600: 1.016 ± 0.002
[4]
  biofilm OD600: 0.967 ± 0.024

## Cc1c(NC(=O)c2cccnc2)c(=O)n(-c2ccccc2)n1C [nifenazone]
[1]
  biofilm OD600: 0.927
[2]
  biofilm OD600: 0.919
[3]
  biofilm OD600: 1.004 ± 0.0086
[4]
  biofilm OD600: 0.968 ± 0.065

## COCCOC(=O)C1=C(C)NC(C)=C(C(=O)OC(C)C)C1c1cccc([N+](=O)[O-])c1 (stereo unspecified) [nimodipine]
[5]
  biofilm OD600: 1.07
[6]
  biofilm OD600: 1.06
[1]
  biofilm OD600: 0.942
[7]
  biofilm OD600: 1.01
[2]
  biofilm OD600: 0.821
[3]
  biofilm OD600: 0.91 ± 0.029
[4]
  biofilm OD600: 0.984 ± 0.043
[8]
  biofilm OD600: 0.987
[9]
  biofilm OD600: 1.27

## COC(=O)C1=C(C)NC(C)=C(C(=O)OCC(C)C)C1c1ccccc1[N+](=O)[O-] (stereo unspecified) [nisoldipine]
[5]
  biofilm OD600: 0.962
[6]
  biofilm OD600: 1.01
[1]
  biofilm OD600: 0.914
[7]
  biofilm OD600: 0.989
[2]
  biofilm OD600: 0.888
[3]
  biofilm OD600: 1.01 ± 0.051
[4]
  biofilm OD600: 0.65 ± 0.077
[8]
  biofilm OD600: 0.549
[9]
  biofilm OD600: 0.397

## O=C1CN(/N=C/c2ccc([N+](=O)[O-])o2)C(=O)N1 [nitrofurantoin]
[1]
  biofilm OD600: 1.08
[2]
  biofilm OD600: 1.04
[3]
  biofilm OD600: 0.999 ± 0.035
[4]
  biofilm OD600: 0.999 ± 0.011

## Cc1cc2c(s1)Nc1ccccc1N=C2N1CCN(C)CC1 [olanzapine]
[1]
  biofilm OD600: 0.943
[2]
  biofilm OD600: 0.921
[3]
  biofilm OD600: 0.999 ± 0.027
[4]
  biofilm OD600: 0.974 ± 0.04

## Fc1ccc([C@@H]2CCNC[C@H]2COc2ccc3c(c2)OCO3)cc1 [paroxetine hydrochloride]
[5]
  biofilm OD600: 1.02
[6]
  biofilm OD600: 1.05
[1]
  biofilm OD600: 0.932
[7]
  biofilm OD600: 0.95
[2]
  biofilm OD600: 0.926
[3]
  biofilm OD600: 0.9497 ± 0.0011
[4]
  biofilm OD600: 0.509 ± 0.05
[8]
  biofilm OD600: 0.62
[9]
  biofilm OD600: 0.565

## NC(=O)NC(=O)Cc1ccccc1 [phenacemide]
[1]
  biofilm OD600: 1.05
[2]
  biofilm OD600: 0.929
[3]
  biofilm OD600: 1.015 ± 0.0049
[4]
  biofilm OD600: 1.02 ± 0.065
